The source made the active and inactive calls. The rule behind the calls is not given here.
Experiments:
[1] = target: T1, DNA topoisomerase 1 (Homo sapiens) (UniProt P11387); experiment: Inhibition of topoisomerase 1 (unknown origin) assessed as DNA intercalation at 1 mM using pBR322 DNA as substrate measured after 30 mins by gel electrophoresis relative to control
T1 sequence (whole entry): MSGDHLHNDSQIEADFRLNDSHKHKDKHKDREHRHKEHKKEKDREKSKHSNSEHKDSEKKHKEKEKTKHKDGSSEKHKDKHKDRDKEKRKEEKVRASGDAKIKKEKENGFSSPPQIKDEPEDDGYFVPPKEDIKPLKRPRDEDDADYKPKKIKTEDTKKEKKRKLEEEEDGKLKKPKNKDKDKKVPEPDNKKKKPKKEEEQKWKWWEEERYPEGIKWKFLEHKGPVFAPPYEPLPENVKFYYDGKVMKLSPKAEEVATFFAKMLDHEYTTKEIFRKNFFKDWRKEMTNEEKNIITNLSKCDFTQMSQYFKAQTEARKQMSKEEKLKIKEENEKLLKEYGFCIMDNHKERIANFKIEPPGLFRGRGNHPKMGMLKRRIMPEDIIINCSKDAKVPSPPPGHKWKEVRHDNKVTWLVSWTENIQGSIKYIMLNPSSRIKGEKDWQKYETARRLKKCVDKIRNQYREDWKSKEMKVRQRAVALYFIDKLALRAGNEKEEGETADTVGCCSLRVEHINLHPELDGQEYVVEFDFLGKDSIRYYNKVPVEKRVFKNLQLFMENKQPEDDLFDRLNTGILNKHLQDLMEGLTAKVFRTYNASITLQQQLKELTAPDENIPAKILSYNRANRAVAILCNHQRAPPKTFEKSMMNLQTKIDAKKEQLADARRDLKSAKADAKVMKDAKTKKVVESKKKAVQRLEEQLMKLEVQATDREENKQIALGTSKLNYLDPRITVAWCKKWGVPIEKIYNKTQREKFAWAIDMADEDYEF

[2] = target: T1, DNA topoisomerase 1 (Homo sapiens); experiment: Poison activity at topoisomerase 1 (unknown origin) assessed as stabilization of enzyme-DNA cleavage complex by measuring increase in nicked DNA formation at 1 mM using pBR322 DNA as substrate after 30 mins by agarose gel electrophoresis
[3] = target: T1, DNA topoisomerase 1 (Homo sapiens); experiment: Inhibition of topoisomerase 1 (unknown origin) assessed as reduction in relaxation of supercoiled DNA at 1 mM using pBR322 plasmid DNA as substrate measured after 30 mins by gel electrophoresis relative to control

Which inhibition [1] does the source give for `CC[n+]1c(-c2ccccc2)c2cc(N)ccc2c2ccc(N)cc21` here?
The inhibition was “Active”.

`O=C1CCC[C@H]2[C@H]3CCCN[C@@H]3[C@@H](CCCN3C[C@H]4C[C@H](C3)c3cccc(=O)n3C4)CN12` was tested. Which Activity [2] did it give?
Its Activity is “Active”.

What about the inhibition [3] of the same molecule?
Its inhibition is 58.6%.

With `O=C1CCC[C@H]2[C@@H]3CCCN[C@H]3[C@H](CCCN3C[C@H]4C[C@H](C3)c3cccc(=O)n3C4)CN12` as the molecule, how does the Activity [2] read?
The Activity was “Active”.

And the inhibition [3]?
Its inhibition is 82.3%.

Reference: ChEMBL document CHEMBL5143657, “Discovery, Topo I inhibitory activity and mechanism evaluation of two novel cytisine-type alkaloid dimers from the seeds of Sophora alopecuroides L” (Bioorg Med Chem, 2022)
